# Test results as given in ChEMBL document CHEMBL4325858, “Quantitative and systems pharmacology 4. Network-based analysis of drug pleiotropy on coronary artery disease” (Eur J Med Chem, 2019).
# Target: T1, Prostaglandin G/H synthase 2 (Homo sapiens, UniProt P35354)
# T1 sequence (P35354 whole entry): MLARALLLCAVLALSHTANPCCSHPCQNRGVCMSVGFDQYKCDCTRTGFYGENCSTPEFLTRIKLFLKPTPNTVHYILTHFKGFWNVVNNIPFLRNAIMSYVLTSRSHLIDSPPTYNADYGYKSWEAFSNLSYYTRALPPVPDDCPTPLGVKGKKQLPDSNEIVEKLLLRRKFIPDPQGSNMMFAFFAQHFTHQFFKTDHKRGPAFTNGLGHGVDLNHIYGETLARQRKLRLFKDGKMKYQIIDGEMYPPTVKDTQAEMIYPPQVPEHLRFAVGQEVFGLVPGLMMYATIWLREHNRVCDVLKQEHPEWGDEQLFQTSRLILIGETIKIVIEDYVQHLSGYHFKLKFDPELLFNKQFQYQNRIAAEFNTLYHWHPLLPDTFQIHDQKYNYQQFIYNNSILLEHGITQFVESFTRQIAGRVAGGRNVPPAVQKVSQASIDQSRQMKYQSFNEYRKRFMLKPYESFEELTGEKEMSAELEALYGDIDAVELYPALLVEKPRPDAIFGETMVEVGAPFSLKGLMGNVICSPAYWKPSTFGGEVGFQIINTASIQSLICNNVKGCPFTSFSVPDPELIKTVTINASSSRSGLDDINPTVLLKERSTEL
# Assay: Inhibition of recombinant human COX2 expressed in baculovirus infected Sf9 insect cells using arachidonic acid as substrate preincubated for 10 mins followed by substrate addition and measured after 10 mins by ELISA
compound,measurement,value
CCC(=O)NS(=O)(=O)c1ccc(-c2c(-c3ccccc3)noc2C)cc1 [PARECOXIB],IC50,5 nM
